Test results: publication PMC7156458, “Synthetic biology based construction of biological activity-related library of fungal decalin-containing diterpenoid pyrones” (Nature Communications, 2020)

Target: Aβ42 (Homo sapiens, UniProt P05067)
Assay: Th-T (thioflavin-T) assay of Aβ42 aggregation
Type: biochemical
Conditions: for Th-T assay plate reading, mean of three wells (Supplementary Fig. 47): source data, Ab alone and No Ab as controls

Sequence of Aβ42 (P05067 672-713): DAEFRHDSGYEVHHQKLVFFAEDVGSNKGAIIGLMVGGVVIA

- Th-T fluorescence, mean of three wells (Aβ42 aggregation time course, reading M117): 3.821
- Th-T fluorescence, mean of three wells (Aβ42 aggregation time course, reading M118): 3.829
- Th-T fluorescence, mean of three wells (Aβ42 aggregation time course, reading M119): 3.818
- Th-T fluorescence, mean of three wells (Aβ42 aggregation time course, reading M120): 3.827
- Th-T fluorescence, mean of three wells (Aβ42 aggregation time course, reading M121): 3.807
- Th-T fluorescence, mean of three wells (Aβ42 aggregation time course, reading M122): 3.851
- Th-T fluorescence, mean of three wells (Aβ42 aggregation time course, reading M123): 3.84
- Th-T fluorescence, mean of three wells (Aβ42 aggregation time course, reading M124): 3.827
- Th-T fluorescence, mean of three wells (Aβ42 aggregation time course, reading M125): 3.803
- Th-T fluorescence, mean of three wells (Aβ42 aggregation time course, reading M126): 3.803
- Th-T fluorescence, mean of three wells (Aβ42 aggregation time course, reading M127): 3.811
- Th-T fluorescence, mean of three wells (Aβ42 aggregation time course, reading M128): 3.832
- Th-T fluorescence, mean of three wells (Aβ42 aggregation time course, reading M129): 3.806
- Th-T fluorescence, mean of three wells (Aβ42 aggregation time course, reading M130): 3.7777
- Th-T fluorescence, mean of three wells (Aβ42 aggregation time course, reading M131): 3.7932
- Th-T fluorescence, mean of three wells (Aβ42 aggregation time course, reading M132): 3.801
- Th-T fluorescence, mean of three wells (Aβ42 aggregation time course, reading M133): 3.762
- Th-T fluorescence, mean of three wells (Aβ42 aggregation time course, reading M134): 3.777
- Th-T fluorescence, mean of three wells (Aβ42 aggregation time course, reading M135): 3.785
- Th-T fluorescence, mean of three wells (Aβ42 aggregation time course, reading M136): 3.777
- Th-T fluorescence, mean of three wells (Supplementary Fig. 47, reading M137): 3.7533
- Th-T fluorescence, mean of three wells (Supplementary Fig. 47, reading M138): 3.768
- Th-T fluorescence, mean of three wells (Supplementary Fig. 47, reading M139): 3.732
- Th-T fluorescence, mean of three wells (Supplementary Fig. 47, reading M140): 3.756
- Th-T fluorescence, mean of three wells (Supplementary Fig. 47, reading M141): 3.727
- Th-T fluorescence, mean of three wells (Supplementary Fig. 47, reading M142): 3.722
- Th-T fluorescence, mean of three wells (Supplementary Fig. 47, reading M143): 3.7233
- Th-T fluorescence, mean of three wells (Supplementary Fig. 47, reading M144): 3.718
- Th-T fluorescence, mean of three wells (Supplementary Fig. 47, reading M145): 3.718
- Th-T fluorescence, mean of three wells (Supplementary Fig. 47 source data, measurement M37 of time course): 3.91
- Th-T fluorescence, mean of three wells (Supplementary Fig. 47 source data, measurement M38 of time course): 3.88
- Th-T fluorescence, mean of three wells (Supplementary Fig. 47 source data, measurement M39 of time course): 3.926
- Th-T fluorescence, mean of three wells (Supplementary Fig. 47 source data, measurement M40 of time course): 3.945
- Th-T fluorescence, mean of three wells (Supplementary Fig. 47 source data, measurement M41 of time course): 3.951
- Th-T fluorescence, mean of three wells (Supplementary Fig. 47 source data, measurement M42 of time course): 3.943
- Th-T fluorescence, mean of three wells (Supplementary Fig. 47 source data, measurement M43 of time course): 3.96
- Th-T fluorescence, mean of three wells (Supplementary Fig. 47 source data, measurement M44 of time course): 3.975
- Th-T fluorescence, mean of three wells (Supplementary Fig. 47 source data, measurement M45 of time course): 3.993
- Th-T fluorescence, mean of three wells (Supplementary Fig. 47 source data, measurement M46 of time course): 3.9875
- Th-T fluorescence, mean of three wells (Supplementary Fig. 47 source data, measurement M47 of time course): 4.0057
- Th-T fluorescence, mean of three wells (Supplementary Fig. 47 source data, measurement M48 of time course): 4.03
- Th-T fluorescence, mean of three wells (Supplementary Fig. 47 source data, measurement M49 of time course): 4.026
- Th-T fluorescence, mean of three wells (Supplementary Fig. 47 source data, measurement M50 of time course): 3.972
- Th-T fluorescence, mean of three wells (Supplementary Fig. 47 source data, measurement M51 of time course): 4.006
- Th-T fluorescence, mean of three wells (Supplementary Fig. 47 source data, measurement M52 of time course): 4
- Th-T fluorescence, mean of three wells (Supplementary Fig. 47 source data, measurement M53 of time course): 3.995
- Th-T fluorescence, mean of three wells (Supplementary Fig. 47 source data, measurement M54 of time course): 4.005
- Th-T fluorescence, mean of three wells (Supplementary Fig. 47 source data, measurement M55 of time course): 4.01
- Th-T fluorescence, mean of three wells (Supplementary Fig. 47 source data, measurement M56 of time course): 4.026
- Th-T assay plate reading, mean of three wells (Supplementary Fig. 47) (measurement M1): 0.1917
- Th-T assay plate reading, mean of three wells (Supplementary Fig. 47) (measurement M2): 0.1872
- Th-T assay plate reading, mean of three wells (Supplementary Fig. 47) (measurement M3): 0.2017
- Th-T assay plate reading, mean of three wells (Supplementary Fig. 47) (measurement M4): 0.2278
- Th-T assay plate reading, mean of three wells (Supplementary Fig. 47) (measurement M5): 0.2368
- Th-T assay plate reading, mean of three wells (Supplementary Fig. 47) (measurement M6): 0.2919
- Th-T assay plate reading, mean of three wells (Supplementary Fig. 47) (measurement M7): 0.3712
- Th-T assay plate reading, mean of three wells (Supplementary Fig. 47) (measurement M8): 0.4061
- Th-T assay plate reading, mean of three wells (Supplementary Fig. 47) (measurement M9): 0.4563
- Th-T assay plate reading, mean of three wells (Supplementary Fig. 47) (measurement M10): 0.5903
- Th-T assay plate reading, mean of three wells (Supplementary Fig. 47) (measurement M11): 0.9948
- Th-T assay plate reading, mean of three wells (Supplementary Fig. 47) (measurement M12): 1.768
- Th-T assay plate reading, mean of three wells (Supplementary Fig. 47) (measurement M13): 2.41
- Th-T assay plate reading, mean of three wells (Supplementary Fig. 47) (measurement M14): 2.789
- Th-T assay plate reading, mean of three wells (Supplementary Fig. 47) (measurement M15): 2.988
- Th-T assay plate reading, mean of three wells (Supplementary Fig. 47) (measurement M16): 3.116
- Th-T fluorescence, mean of three wells (reading M17, Supplementary Fig. 47 source data): 3.2228
- Th-T fluorescence, mean of three wells (reading M18, Supplementary Fig. 47 source data): 3.274
- Th-T fluorescence, mean of three wells (reading M19, Supplementary Fig. 47 source data): 3.356
- Th-T fluorescence, mean of three wells (reading M20, Supplementary Fig. 47 source data): 3.42
- Th-T fluorescence, mean of three wells (reading M21, Supplementary Fig. 47 source data): 3.466
- Th-T fluorescence, mean of three wells (reading M22, Supplementary Fig. 47 source data): 3.5211
- Th-T fluorescence, mean of three wells (reading M23, Supplementary Fig. 47 source data): 3.558
- Th-T fluorescence, mean of three wells (reading M24, Supplementary Fig. 47 source data): 3.581
- Th-T fluorescence, mean of three wells (reading M25, Supplementary Fig. 47 source data): 3.61
- Th-T fluorescence, mean of three wells (reading M26, Supplementary Fig. 47 source data): 3.64
- Th-T fluorescence, mean of three wells (reading M27, Supplementary Fig. 47 source data): 3.697
- Th-T fluorescence, mean of three wells (reading M28, Supplementary Fig. 47 source data): 3.7304
- Th-T fluorescence, mean of three wells (reading M29, Supplementary Fig. 47 source data): 3.755
- Th-T fluorescence, mean of three wells (reading M30, Supplementary Fig. 47 source data): 3.765
- Th-T fluorescence, mean of three wells (reading M31, Supplementary Fig. 47 source data): 3.799
- Th-T fluorescence, mean of three wells (reading M32, Supplementary Fig. 47 source data): 3.833
- Th-T fluorescence, mean of three wells (reading M33, Supplementary Fig. 47 source data): 3.798
- Th-T fluorescence, mean of three wells (reading M34, Supplementary Fig. 47 source data): 3.8608
- Th-T fluorescence, mean of three wells (reading M35, Supplementary Fig. 47 source data): 3.851
- Th-T fluorescence, mean of three wells (reading M36, Supplementary Fig. 47 source data): 3.863
- Th-T fluorescence, mean of three wells (time course, reading M57): 4.004
- Th-T fluorescence, mean of three wells (time course, reading M58): 4.031
- Th-T fluorescence, mean of three wells (time course, reading M59): 4.01
- Th-T fluorescence, mean of three wells (time course, reading M60): 3.981
- Th-T fluorescence, mean of three wells (time course, reading M61): 4.001
- Th-T fluorescence, mean of three wells (time course, reading M62): 4.022
- Th-T fluorescence, mean of three wells (time course, reading M63): 4.022
- Th-T fluorescence, mean of three wells (time course, reading M64): 3.993
- Th-T fluorescence, mean of three wells (time course, reading M65): 3.998
- Th-T fluorescence, mean of three wells (time course, reading M66): 4.007
- Th-T fluorescence, mean of three wells (time course, reading M67): 3.974
- Th-T fluorescence, mean of three wells (time-course reading M97, Supplementary Fig. 47 source data): 3.915
- Th-T fluorescence, mean of three wells (time-course reading M98, Supplementary Fig. 47 source data): 3.9
- Th-T fluorescence, mean of three wells (time-course reading M99, Supplementary Fig. 47 source data): 3.901
- Th-T fluorescence, mean of three wells (time-course reading M100, Supplementary Fig. 47 source data): 3.914
- Th-T fluorescence, mean of three wells (time-course reading M101, Supplementary Fig. 47 source data): 3.9074
- Th-T fluorescence, mean of three wells (time-course reading M102, Supplementary Fig. 47 source data): 3.878
- Th-T fluorescence, mean of three wells (time-course reading M103, Supplementary Fig. 47 source data): 3.8886
- Th-T fluorescence, mean of three wells (time-course reading M104, Supplementary Fig. 47 source data): 3.914
- Th-T fluorescence, mean of three wells (time-course reading M105, Supplementary Fig. 47 source data): 3.865
- Th-T fluorescence, mean of three wells (time-course reading M106, Supplementary Fig. 47 source data): 3.9
- Th-T fluorescence, mean of three wells (time-course reading M107, Supplementary Fig. 47 source data): 3.909
- Th-T fluorescence, mean of three wells (time-course reading M108, Supplementary Fig. 47 source data): 3.872
- Th-T fluorescence, mean of three wells (time-course reading M109, Supplementary Fig. 47 source data): 3.882
- Th-T fluorescence, mean of three wells (time-course reading M110, Supplementary Fig. 47 source data): 3.8573
- Th-T fluorescence, mean of three wells (time-course reading M111, Supplementary Fig. 47 source data): 3.873
- Th-T fluorescence, mean of three wells (time-course reading M112, Supplementary Fig. 47 source data): 3.8761
- Th-T fluorescence, mean of three wells (time-course reading M113, Supplementary Fig. 47 source data): 3.855
- Th-T fluorescence, mean of three wells (time-course reading M114, Supplementary Fig. 47 source data): 3.858
- Th-T fluorescence, mean of three wells (time-course reading M115, Supplementary Fig. 47 source data): 3.833
- Th-T fluorescence, mean of three wells (time-course reading M116, Supplementary Fig. 47 source data): 3.836
Compound: C=C1CCC2C3(C)CC(C=C(C)C)OC3CCC2(C)C1Cc1c(OC)oc(C)c(C)c1=O (centres unmarked) [Compound 23]
